The results in this text go back to patent publication US20110313672A1, “CELLULAR ANTIOXIDANT ACTIVITY (CAA) ASSAY” (CORNELL UNIVERSITY, priority 2007, published 2011).

Experiment [1] can be described thus: Oxygen radical absorbance capacity (ORAC) assay. Particulars: Example 3; flavonoids; mean ± SD, n ≧ 3. As to the method: The peroxyl radical scavenging efficacy of selected fruits was measured using the ORAC assay (Prior, R. L., et al (2003) J. Agric. Food Chem. 51:3273-3279). Briefly, 20 μL of blank, Trolox standard, or fruit extracts in 75 mM potassium phosphate buffer, pH 7.4 (working buffer), was added to triplicate wells in a black, clear-bottom, 96-well microplate. The triplicate samples were distributed throughout the microplate and were not placed side-by-side, to avoid any effects on readings due to location. In addition, no outside wells were used, as use of those wells results in greater variation. A volume of 200 μL of 0.96 μM fluorescein in working buffer was added to each well and incubated at 37° C. for 20 min, with intermittent shaking, before the addition of 20 μL of freshly prepared 119 mM ABAP in working buffer using a 12-channel pipetter. The microplate was immediately inserted into a Fluoroskan Ascent FL plate reader (ThermoLabsystems) at 37° C. The decay of fluorescence at 538 nm was measured with excitation at 485 nm every 4.5 min for 2.5 h. The areas under the fluorescence versus time curve for the samples minus the area under the curve for the blank were calculated and compared to a standard curve of the areas under the curve for 6.25, 12.5, 25, and 50 μM Trolox standards minus the area under the curve for blank. ORAC values were expressed as mean micromoles of Trolox equivalents (TE) per 100 g of fruit±SD for triplicate data from one experiment.
ORAC measurements were performed as described herein in Example 2.

For another experiment, the system named is HepG2 cells. The experiment can be described thus: Cellular antioxidant activity (CAA) assay: inhibition of peroxyl radical-induced DCFH oxidation. The format is cell-based, human. Particulars: for CAA value: Example 1, pure compounds, EC50 converted to quercetin equivalents.
Setting [2] is: Example 3, Table 7, no PBS wash.

Values joined by “and” are separate entries in the source; they are usually repeats but may differ in a detail not shown here. Equal values may be shown once. “Also recorded” adds a separate entry of the source. Read-outs that look alike come from different tables or passages of the source.

Turning to `O=c1c(O)c(-c2ccc(O)cc2O)oc2cc(O)cc(O)c12` [morin], the ORAC in experiment [1] is 6.12±1.95 μmol of TE/μmol and 6.12 ± 1.95 efg μmol of TE/μmol. Moreover, the CAA is 18.6 ± 18 μmol of QE/100 μmol in the experiment with HepG2 cells (Example 3, Table 7, PBS wash) and 32.1 ± 2.1 μmol of QE/100 μmol in the experiment on HepG2 cells (setting [2]). In addition, the EC50 with HepG2 cells (Homo sapiens, HepG2, Example 3, Table 7, PBS wash, flavonoids, mean ± SD, n=3, read-out: EC50) turned out to be 43.9 ± 4.3 µM; with HepG2 cells (Homo sapiens, HepG2, Example 3, Table 7, no PBS wash, flavonoids, mean ± SD, n=3, read-out: EC50) it was 27.6 ± 1.8 µM; with HepG2 cells (Homo sapiens, HepG2, Example 3, text b252, PBS wash, read-out: EC50), 43.9 ± 0.43 µM; in the experiment on HepG2 cells (Homo sapiens, HepG2, Example 3, text b252, no PBS wash, read-out: EC50), 27.6 ± 1.8 µM.

For the molecule `O=C1C[C@@H](c2ccc(O)cc2)Oc2cc(O)cc(O)c21` [naringenin], the ORAC in experiment [1] was 9.23 ± 2.79 bcd μmol of TE/μmol. In addition, the “cellular antioxidant activity, result in words” value with HepG2 cells (CAA assay, either protocol or protocol not specified) is recorded as “no activity; also recorded: no CAA”; with HepG2 cells (no PBS wash protocol), “none”. For the same molecule, the EC50 entry in the experiment with HepG2 cells (Example 3, Table 7, PBS wash, flavonoids, mean ± SD, n=3) was “no activity”; in the experiment with HepG2 cells (Example 3, Table 7, no PBS wash, flavonoids, mean ± SD, n=3), “no activity”.

On to (−)-epigallocatechin gallate [EGCG], for which the ORAC in experiment [1] is 4.55±0.40 μmol of TE/μmol and 4.55 ± 0.40 fgh μmol of TE/μmol. For the same molecule, the concentration for a half-maximal effect (EC50) in the experiment on HepG2 cells (Example 1, Table 1, PBS wash, pure phytochemical compounds, mean ± SD, n=3, read-out: EC50 for inhibition of peroxyl radical-induced DCFH oxidation) is 15.8 ± 0.4 µM; with HepG2 cells (Example 1, Table 1, no PBS wash, pure phytochemical compounds, mean ± SD, n=3, read-out: EC50 for inhibition of peroxyl radical-induced DCFH oxidation), 14 ± 1 µM; with HepG2 cells (Example 3, Table 7, PBS wash, flavonoids, mean ± SD, n=3, read-out: EC50), 12.8 ± 0.9 µM; in the experiment on HepG2 cells (Example 3, Table 7, no PBS wash, flavonoids, mean ± SD, n=3, read-out: EC50) it was 12.3 ± 0.7 µM. The CAA value is 32.3 ± 0.9 µmol QE/100 µmol in the experiment on HepG2 cells (PBS wash) and 42.2±3.1 μmol QE/100 μmol with HepG2 cells (no PBS wash). For the same molecule, the CAA with HepG2 cells (Example 3, Table 7, PBS wash) is recorded as 63.8 ± 4.4 μmol of QE/100 μmol; in the experiment with HepG2 cells (setting [2]) it was 72.1 ± 3.8 μmol of QE/100 μmol.

A word on the EC50: it is the concentration that produces a half-maximal response.
